Data reported in article PMC3790782, “Optimization and Pharmacological Validation of a Leukocyte Migration Assay in Zebrafish Larvae for the Rapid In Vivo Bioactivity Analysis of Anti-Inflammatory Secondary Metabolites” (PLoS ONE, 2013).
≈ marks a conversion by molar mass, not a printed value. Where a name gives a salt, the structure may show the parent alone. Marks after values point to notes of the source that are not given here.

Experiments:
[1] = system: zebrafish larvae; details: 4 dpf zebrafish larvae, 8 h post-incubation; not more than 2 of 10 larvae with signs of toxicity
Description: For the toxicological analysis, ten 4 dpf zebrafish larvae were used per well in 24-well culture plates. Incubation of each set of larvae at 28°C (±0.5) was done with SAIDs, NSAIDs and non-AIDs at concentrations ranging from 0.1 µM to 500 µM, with NPs at concentrations ranging from 1 µM to 500 µM, and with PEs at concentrations ranging from 1 ug/ml to 1 mg/ml. Controls containing only vehicle (1% DMSO) and untreated larvae were processed in parallel. Examination of each set of larvae was done under light microscopy (Carl Zeiss Stemi 2000C) each hour during a period of 8 h, and a final evaluation at 24 h post-incubation. At 8 h post-incubation, signs of toxicity, e.g. pericardial oedema, cardiovascular defects (arrhythmia or decreased circulation), balance defects (loss of normal posture), locomotor defects (decreased touch response), and ultimately death were scored for every drug, NP, and PE to further establish their maximum tolerated concentration (MTC). […] In this context, only non-toxic concentrations (below the MTC) were considered for further leukocyte migration analysis. All the toxicological assays were performed in duplicate using a different batch of zebrafish larvae for each set of experiments.
Toxicological assessment of all the samples analyzed in our study was done prior to the evaluation of their anti-inflammatory properties. The maximum tolerated concentrations (MTCs) were determined at 8 h post-treatment according to toxicological parameters including pericardial oedema, cardiovascular defects (arrhythmia or decreased circulation), balance defects (loss of normal posture), locomotor defects (decreased touch response), and death. […] Vehicle-treated (1% DMSO) and untreated larvae were processed in parallel to minimize experimental variability in this toxicological evaluation.

[2] = system: leukocyte migration in 4 dpf zebrafish larvae; experiment: LPS-enhanced leukocyte migration assay (tail transection, MPO staining, RLM); type: in vivo, zebrafish (Danio rerio); set-up: Anti-inflammatory activity at MTC: concentration or dose not given beside the values; details: for Leukocyte migration (RLM) / response vs control in vivo at 1 µM / response vs control in vivo at 10 µM / response vs control in vivo at 30 µM / response vs control in vivo at 100 µM / response vs control in vivo at 300 µM / response vs control in vivo at 500 µM / Relative leukocyte migration (RLM): tail cut + 10 µg/ml LPS, relative to 1% DMSO control; for Anti-inflammatory activity at MTC: (1−RLM)x100; for RLM (zebrafish-based assay): at the MTC given in Table 2; for response vs control in vivo at 1 µM / response vs control in vivo at 10 µM / response vs control in vivo at 30 µM / response vs control in vivo at 100 µM / response vs control in vivo at 300 µM / response vs control in vivo at 500 µM: Danio rerio, Leukocyte, 8 h
Description: The lipopolysaccharide- (LPS−)enhanced leukocyte migration assay was carried out by triplicate for each sample in 4 dpf zebrafish larvae. The total incubation period of the assay was eight hours. Initially, a pre-incubation step (i.e. prior to tail transection) of one hour at 28°C (±0.5°C) was carried out in 24-well culture plates. Ten larvae per well were incubated in 1 ml of testing mix, consisting of a specific concentration of each sample and the amount of 0.3 X Danieau’s medium necessary to complete 1 ml. Immediately after pre-incubation, complete tail transection in each larva was performed. Zebrafish larvae were first anesthetized by immersion in 0.3 X Danieau’s medium containing 70 µg/ml tricaine (ethyl 3-aminobenzoate, Sigma-Aldrich) and then tail transection near the tip was performed with a sterile scalpel under light microscopy (Carl Zeiss Stemi 2000C). Larvae were then placed in fresh 0.3 X Danieau’s medium without anesthetic for a few minutes until the final incubation period. For the last step, a new testing mix was prepared including 10 µg/ml lipopolysaccharides from Salmonella typhosa ATCC 10749 (LPS, Sigma-Aldrich Chemical) to enhance leukocyte migration to the injured zone. The final incubation step (i.e. subsequent to tail transection) of the injured larvae in contact with the pro-inflammatory agent and with the specific concentration of each SAID, NSAID, non-AID, NP, and PE at 28°C (±0.5°C) was done for 7 h. Within this period, sporadic evaluations of the larvae were done to examine their viability during the time of the assay. Larvae that completed the incubation time were fixed overnight in 4% formaldehyde (Sigma-Aldrich) at 4°C. Controls containing only the vehicle (1% DMSO) were processed in parallel.
Fixed larvae were gently washed twice with 1 X PBST (PBS-1X phosphate buffered saline, Gibco +0.1% Tween 20) for 5–10 min and then incubated at room temperature in 1 ml of freshly prepared Leucognost® Pox (Merck) staining solution, made according the directions of the provider. Observation of stained black-brown cells (leukocytes) in the larvae was possible within 15 min of incubation. Evaluation of the migrating leukocytes, particularly surrounding the injured region, in each larva was done under light microscopy (Carl Zeiss Stemi 2000C) and scoring was done using a migration scale established to semi-quantify the amount of migrating leukocytes on one side of each larva.
The average of the value achieved for each of the ten larvae tested in triplicate for one sample is expressed as relative leukocyte migration (RLM) according to the formula: RLM = leukocyte migration of the larva/average leukocyte migration of the negative control.
To determine the extent of leukocyte migration generated after exposing 4 dpf zebrafish larvae to mechanical and biological stimuli – namely tail transection and LPS exposure – we used a commercially available whole-mount cytochemical staining method (Leucognost® Pox, Merck) to detect MPO activity in situ. To minimize the number of handling steps post-staining, this method was chosen over the alternative myeloperoxidase stain Sudan Black B [26], [27], which also stains phospholipids, neural fats and sterols. In our experiments, we visualized migrating leukocytes in 4 dpf larvae at 8 h post-injury. Microscopic evaluations of MPO-stained larvae allowed us to score the degree of leukocyte migration at the trauma site according to a comparative scale that we established particularly for this purpose (Figure 2). Myeloperoxidase-positive cells, appearing as black-brown dots, were counted in a segment at the edge of the tail on one side of every larva (Figure 2). The number of leukocytes was then graded according to the comparative scale and subsequently converted into a relative value expressed as the relative leukocyte migration (RLM) activity for the total number or larvae for one sample.

[3] = system: NO, PGE2, COX-2, RAW 264.7; set-up: method as in PMID 21771629, PMID 21870032; details: cited from earlier work
[4] = system: IL-4, RBL-2H3; set-up: method as in PMID 19378317, PMID 17982104, PMID 21443976; details: cited from earlier work
[5] = system: TNF-α, RBL-2H3; set-up: method as in PMID 19378317, PMID 17982104, PMID 21443976; details: cited from earlier work
[6] = system: IL-1β, human monocytes; set-up: method as in PMID 19378317, PMID 17982104, PMID 21443976; details: cited from earlier work
[7] = system: TNF-α, RAW 264.7; details: cited from earlier work
[8] = system: COX, rat peritoneal leukocytes; set-up: method as in PMID 19378317, PMID 16220571, PMID 21443976; details: cited from earlier work
[9] = system: PGE2, rat macrophages; details: cited from earlier work
[10] = system: TNF-α, iNOS, macrophages; set-up: method as in PMID 19378317, PMID 15668926; details: cited from earlier work

CC(C)=CCC[C@](C)(O)[C@@H]1CC=C(C)CC1 [(−)-α-bisabolol]
Maximum tolerated concentration (MTC) [1]: 30 µM
Leukocyte migration (RLM) ([2]; 1 µM): 0.53 ^*
Leukocyte migration (RLM) ([2]; 30 µM): 0.48
Anti-inflammatory activity at MTC [2]: 52%
RLM (zebrafish-based assay) [2]: 0.48
IC50 [3]: 100 µM

O=c1cc(-c2ccc(O)cc2)oc2cc(O)cc(O)c12 [Apigenin, apigenin]
Maximum tolerated concentration (MTC) [1]: 500 µM
Leukocyte migration (RLM) ([2]; 500 µM): 0.35 ^***
response vs control in vivo at 1 µM ([2]; 1 µM): 74%
response vs control in vivo at 10 µM [2]: 53%
response vs control in vivo at 30 µM ([2]; 30 µM): 54%
response vs control in vivo at 100 µM [2]: 37%
response vs control in vivo at 300 µM ([2]; 300 µM): 37%
response vs control in vivo at 500 µM ([2]; 500 µM): 35%
Anti-inflammatory activity at MTC [2]: 65%
Anti-inflammatory activity at MTC ([2]; listed as apigenin): 65%
RLM (zebrafish-based assay) [2]: 0.35
IC50 [4]: 3.6 µM
IC50 [5]: 5.3 µM
IC50 [6]: 10 µM

C[C@]1(OC(=O)/C=C/c2ccccc2)C[C@@H](O)[C@]2(O)C=CO[C@@H](O[C@@H]3O[C@H](CO)[C@@H](O)[C@H](O)[C@H]3O)[C@@H]21 [Harpagoside, harpagoside]
Maximum tolerated concentration (MTC) [1]: 300 µM
Leukocyte migration (RLM) ([2]; 300 µM): 0.12 ^*
response vs control in vivo at 1 µM ([2]; 1 µM): 48%
response vs control in vivo at 10 µM [2]: 29%
response vs control in vivo at 30 µM ([2]; 30 µM): 30%
response vs control in vivo at 100 µM [2]: 15%
response vs control in vivo at 300 µM ([2]; 300 µM): 12%

O=c1cc(-c2ccc(O)c(O)c2)oc2cc(O)cc(O)c12 [Luteolin, luteolin]
Maximum tolerated concentration (MTC) [1]: 500 µM
response vs control in vivo at 1 µM ([2]; 1 µM): 63%
response vs control in vivo at 10 µM [2]: 61%
response vs control in vivo at 30 µM ([2]; 30 µM): 55%
response vs control in vivo at 100 µM [2]: 48%
response vs control in vivo at 300 µM ([2]; 300 µM): 44%
response vs control in vivo at 500 µM ([2]; 500 µM): 41%
Anti-inflammatory activity at MTC [2]: 59%
RLM (zebrafish-based assay) [2]: 0.41
IC50 [7]: < 1 µM
IC50 [8]: 100 mg/L (≈ 349 µM)

O=C1C[C@@H](c2ccc(O)cc2)Oc2cc(O)cc(O)c21 [Naringenin, naringenin]
Maximum tolerated concentration (MTC) [1]: 30 µM
Leukocyte migration (RLM) ([2]; 30 µM): 0.37 ^**
response vs control in vivo at 1 µM ([2]; 1 µM): 67%
response vs control in vivo at 10 µM [2]: 42%
response vs control in vivo at 30 µM ([2]; 30 µM): 37%
Anti-inflammatory activity at MTC [2]: 63%
RLM (zebrafish-based assay) [2]: 0.37

O=c1c(O)c(-c2ccc(O)c(O)c2)oc2cc(O)cc(O)c12 [Quercetin, quercetin]
Maximum tolerated concentration (MTC) [1]: 500 µM
Leukocyte migration (RLM) ([2]; 500 µM): 0.31 ^*
response vs control in vivo at 1 µM ([2]; 1 µM): 65%
response vs control in vivo at 10 µM [2]: 55%
response vs control in vivo at 30 µM ([2]; 30 µM): 35%
response vs control in vivo at 100 µM [2]: 42%
response vs control in vivo at 300 µM ([2]; 300 µM): 40%
response vs control in vivo at 500 µM ([2]; 500 µM): 31%
Anti-inflammatory activity at MTC [2]: 69%
Anti-inflammatory activity at MTC ([2]; listed as quercetin): 69%
RLM (zebrafish-based assay) [2]: 0.31
IC50 [7]: 1 µM
IC50 [9]: 13.9 µM
IC50 [10]: 50 µM

NC12CC3CC(CC(C3)C1)C2 [amantadine, amantadine hydrochloride]
Maximum tolerated concentration (MTC) [1]: 200 µM
Relative leukocyte migration (RLM) ([2]; 200 µM): 0.82

C[C@@H]1C[C@H]2[C@@H]3CCC4=CC(=O)C=C[C@]4(C)[C@@]3(F)[C@@H](O)C[C@]2(C)[C@@]1(O)C(=O)CO [dexamethasone]
Relative leukocyte migration (RLM) ([2]; 0.1 µM): 0.81
Relative leukocyte migration (RLM) ([2]; 200 µM): 0.06

O=C(O)Cc1ccccc1Nc1c(Cl)cccc1Cl [diclofenac]
Maximum tolerated concentration (MTC) [1]: 10 µM
Relative leukocyte migration (RLM) ([2]; 0.1 µM): 0.69
response vs control in vivo at 10 µM [2]: 13%

CN(C)CCC=C1c2ccccc2COc2ccccc21 [doxepin, doxepin hydrochloride]
response vs control in vivo at 30 µM ([2]; 30 µM): 71%

COc1ccc2c(c1)c(CC(=O)O)c(C)n2C(=O)c1ccc(Cl)cc1 [indomethacin]
Maximum tolerated concentration (MTC) [1]: 200 µM
Relative leukocyte migration (RLM) ([2]; 0.1 µM): 0.72
Relative leukocyte migration (RLM) ([2]; 200 µM): 0.09

Nc1nc(N)nc(N)n1 [melamine]
Maximum tolerated concentration (MTC) [1]: 200 µM
Relative leukocyte migration (RLM) ([2]; 200 µM): 0.85

CN1C(C(=O)Nc2ccccn2)=C(O)c2ccccc2S1(=O)=O [piroxicam]
Maximum tolerated concentration (MTC) [1]: 100 µM
Relative leukocyte migration (RLM) ([2]; 0.1 µM): 0.85
response vs control in vivo at 100 µM [2]: 3%

C[C@]12C=CC(=O)C=C1CC[C@@H]1[C@@H]2[C@@H](O)C[C@@]2(C)[C@H]1CC[C@]2(O)C(=O)CO [prednisolone]
Relative leukocyte migration (RLM) ([2]; 0.1 µM): 0.66
Relative leukocyte migration (RLM) ([2]; 200 µM): 0.07
